In patent US8058236B2, “Aqueous inhalation pharmaceutical composition” (Development Center for Biotechnology, priority 2005, dated 2011):

Tests used:
Sprague-Dawley male rats [1] = format: in vivo, rat; settings: absorption enhancer in insulin formulation, pulmonary administration
Experimental: Sprague-Dawley male rats weighted 200-250 g were randomly divided into 7 groups. […] Group 1 was the control group, wherein each rat was administered with Formulation A only.
After administering the formulations to the lung for 0, 5, 15, 30, 60, 90, 120, 180, 240, and 300 minutes, 0.25 ml of blood sample was collected from each rat. After the pulmonary administration for 5 hours, an excess amount of pentobarbital sodium (3 ml) was injected into the femoral artery of the rats. After 5 minutes, the rats were bled and then pulmonary perfusion with phosphate buffer solution was performed.
The collected first 5 ml pulmonary perfusion samples were centrifuged at 350×g in 4° C. for 10 minutes. […]
Based on the pigmentation principle of Biuret reaction (British Pharmacopoeia, p. A23 (1998)), the amount of total protein was determined by measuring the value of OD546 with Autoanalyzer Hitachi 7150; then, the value was converted into the concentration of the protein (the results are shown in Table 3).
Based on the standard operation procedures of the GSCC (German Society of Clinical Chemistry; Recommendation of the German Society for Clinical Chemistry: Z. Klin. Chem. Klin. Biochem., 10, 287-288, 1972), the activity of LDH was determined by measuring the change of OD340 with Autoanalyzer Hitachi 7150; then, the change was converted into the activity of LDH (the results are shown in Table 3).

Sprague-Dawley male rats [2] = assay: In vivo bioavailability study: plasma glucose decrease after pulmonary administration to rats; set-up: species or system rat; settings: enhancer added to insulin formulation
Experimental: Sprague-Dawley male rats weighted 200-250 g were randomly divided into 7 groups. According to the method disclosed in Enna, S. T. et al. (J. Physiol., 1972, 222: 409-414), after the rats were narcotized by abdominally injecting pentobarbital sodium (28.6 ml/kg), catheters were inserted into the trachea and the left femoral artery, respectively, from the cut neck. Group 1 was the control group, wherein each rat was administered with Formulation A only.
The collected blood samples were centrifuged at 3000 rpm in 4° C. for 15 minutes. The upper layer of the plasma was collected. […] The concentrations of insulin in the upper layer samples of plasma were determined by the utilization of a Rat Insulin ELISA Kit (Mercodia), and the pharmacokinetic parameters of the absorption enhancers were further analyzed.

Compound | toxic side effects in the lung (Sprague-Dawley male rats [1]) | bioavailability of insulin, maximal increase by addition of absorption enhancer (Sprague-Dawley male rats [2]) [%]
CCCCCCCC/C=C\CCCCCCCC(=O)OCCOCC(OCCO)C1OCC(OCCO)C1OCCO (stereo not drawn) [Tween-80] | would not induce toxic side effects in the lung | 84.6
LPTC-lauroyl [L-LPTC] | would not induce toxic side effects in the lung | –
